Results published in paper PMC3629565, “Sphingolipid synthesis and scavenging in the intracellular apicomplexan parasite, Toxoplasma gondii” (Molecular and Biochemical Parasitology, 2013).

Target: T1, TgSLS (Toxoplasma gondii, UniProt A0A2U9EWT7)
T1 construct: parasites elsewhere RH, locus tag of ME49), pRS426MET25 in S. cerevisiae YPH499-HIS-GAL-AUR1, CHAPS-washed microsomes; no tag mentioned
T1 sequence (A0A2U9EWT7 1-427): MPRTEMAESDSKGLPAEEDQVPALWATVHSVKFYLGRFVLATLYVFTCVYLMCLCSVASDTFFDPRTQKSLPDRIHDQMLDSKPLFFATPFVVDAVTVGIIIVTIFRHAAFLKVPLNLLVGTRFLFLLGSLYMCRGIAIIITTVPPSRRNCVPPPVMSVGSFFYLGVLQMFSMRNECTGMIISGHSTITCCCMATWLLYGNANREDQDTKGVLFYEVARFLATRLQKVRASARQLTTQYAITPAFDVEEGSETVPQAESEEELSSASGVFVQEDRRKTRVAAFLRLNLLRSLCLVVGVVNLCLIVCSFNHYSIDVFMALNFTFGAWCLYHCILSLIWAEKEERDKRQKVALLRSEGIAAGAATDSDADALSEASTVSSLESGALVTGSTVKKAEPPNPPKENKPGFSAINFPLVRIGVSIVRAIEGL
Experiment: IPC formation by CHAPS-washed yeast microsomes, HPTLC fluorescence
Format: biochemical
Conditions: acceptor substrate at 5 μM; donor 1 mM bovine liver phosphatidylinositol; 10 mM EDTA, 6 mg/ml BSA, 30 °C, 60 min; labelled compound

## CCCCCCCCCCCCC/C=C/[C@@H](O)[C@H](CO)NC(=O)CCCCCNc1ccc([N+](=O)[O-])c2nonc12 [NBD C6-ceramide]
  IPC formation by CHAPS-washed yeast microsomes, HPTLC fluorescence: reaction of CHAPS-washed TgSLS extract with acceptor substrate NBD-C6-ceramide
